One block for each molecule: values may come before it.
Experiments:
[1] = Dicyclanil crystal formation in water with 5% surfactant; format: physicochemical
Protocol: A commercially manufactured batch of Dicyclanil Polymorph A was sourced. This crystalline form was confirmed by X-Ray Diffraction (FIG. 1). Studies were then conducted to determine the ability of various surfactants to prevent the growth of dicyclanil crystals suspended in water. Nonyl phenol and octyl phenol ethoxylates were tested in an aqueous medium according to TABLE 2.
Given the inability of the surfactants of TABLE 2 to prevent crystal growth, a further range of surfactants was tested.

[2] = Maximum solubility of dicyclanil in non-aqueous solvents; format: physicochemical
Protocol: (§1) Materials and Methods: To determine the range of potential non-aqueous solvents to be used in producing dicyclanil solution formulations, a range of solubility studies were performed. The method employed was to add 500 mg quantities of dicyclanil into 10 mL each of solvent. If the drug dissolved it was placed into the refrigerator overnight. Samples were then taken out of the refrigerator and checked for the emergence of precipitate after the sample had been returned to room temperature. Thereafter, dicyclanil was added to each solution, 100 mg each time, until no more dicyclanil would dissolve in the solvent (i.e. dicyclanil was added until the solution reached its saturation concentration for dicyclanil).
Results: An initial range of solvents was obtained (TABLE 12).

[3] = Solubility of dicyclanil in solvents at 25° C.; format: physicochemical
Protocol: as §1
As a result, a further range of solvents was tested. The solvents used for these solubility studies are defined in TABLE 13.

[4] = Solubility of dicyclanil in solvents at 70° C.; format: physicochemical
[5] = Stability of dicyclanil 5% PEG200 solutions, refrigerated and accelerated temperature, 5 days; format: physicochemical
Protocol: Materials and Methods: A formulation was prepared in the following manner (concentration summarized in TABLE 16): • a) Loaded 90% PEG 200 • b) Added Dicyclanil with mixing • c) Made to volume with PEG 200 • d) Mixed until dissolved
Several test formulations were made to determine their stability under refrigerated (2-8° C.) and accelerated temperature (70° C.) conditions for 5 days. DIC 021, 022 and 025 were prepared according to the method described above.

[6] = more active than cyromazine; cited from earlier work
[7] = water with 5% surfactant, Most = >90%

SMILES: N#Cc1c(N)nc(NC2CC2)nc1N [Dicyclanil, 4,6-diamino-2-(cyclopropylamino)-5-pyrimidinecarbonitrile]
Dicyclanil Crystal Formation, 3 days ([1]; water, No surfactant added): Large crystals up to 200μ | Dicyclanil Crystal Formation, Initial ([1]; water, No surfactant added): Long thin, up to 200μ | solubility in words ([2]; many of the commonly used veterinary topical solvents (TABLE 12)): quite insoluble | Maximum solubility (% w/v) ([2]; solvent 2-Pyrollidone): 1% w/v | Maximum solubility (% w/v) ([2]; solvent Benzyl Alcohol): <1% w/v | Maximum solubility (% w/v) ([2]; solvent DGBE): 2% w/v | Maximum solubility (% w/v) ([2]; solvent Glycofurol): 6% w/v | Maximum solubility (% w/v) ([2]; solvent IPM): <1% w/v | Maximum solubility (% w/v) ([2]; solvent MIGLYOL 810): <1% w/v | Maximum solubility (% w/v) ([2]; solvent MIGLYOL 840): <1% w/v | Maximum solubility (% w/v) ([2]; solvent NMP): 4% w/v | Maximum solubility (% w/v) ([2]; solvent Propylene Glycol): 1% w/v | solubility of dicyclanil, soluble at 5% ([3]; 25° C., BA): less | solubility of dicyclanil, soluble at 5% ([3]; 25° C., DGBE): less | solubility of dicyclanil, soluble at 5% ([3]; 25° C., DGMEE): less | solubility of dicyclanil, soluble at 5% ([3]; 25° C., DMA): ✓ | solubility of dicyclanil, soluble at 6% ([3]; 25° C., DMA): ✓ | solubility of dicyclanil, soluble at 7% ([3]; 25° C., DMA): ✓ | solubility of dicyclanil, soluble at 8% ([3]; 25° C., DMA): ✓ | solubility of dicyclanil, soluble at 9% ([3]; 25° C., DMA): ✓ | solubility of dicyclanil, soluble at 10% ([3]; 25° C., DMA, 10%): ✓ | solubility of dicyclanil, soluble at 11% ([3]; 25° C., DMA, 11%): ✓ | solubility of dicyclanil, soluble at 12% ([3]; 25° C., DMA, 12%): ✓ | solubility of dicyclanil, soluble at 13% ([3]; 25° C., DMA, 13%): ✓ | solubility of dicyclanil, soluble at 14% ([3]; 25° C., DMA, 14%): ✓ | solubility of dicyclanil, soluble at 15% ([3]; 25° C., DMA, 15%): ✓ | solubility of dicyclanil, soluble at 16% ([3]; 25° C., DMA, 16%): ✓ | solubility of dicyclanil, soluble at 17% ([3]; 25° C., DMA, 17%): ✓ | solubility of dicyclanil, soluble at 18% ([3]; 25° C., DMA, 18%): ✓ | solubility of dicyclanil, soluble at 5% ([3]; 25° C., DMSO): ✓ | solubility of dicyclanil, soluble at 6% ([3]; 25° C., DMSO): ✓ | solubility of dicyclanil, soluble at 7% ([3]; 25° C., DMSO): ✓ | solubility of dicyclanil, soluble at 8% ([3]; 25° C., DMSO): ✓ | solubility of dicyclanil, soluble at 9% ([3]; 25° C., DMSO): ✓ | solubility of dicyclanil, soluble at 5% ([3]; 25° C., EL): less | solubility of dicyclanil, soluble at 5% ([3]; 25° C., GF): less | solubility of dicyclanil, soluble at 5% ([3]; 25° C., IPA): less | solubility of dicyclanil, soluble at 5% ([3]; 25° C., PEG200): ✓ | solubility of dicyclanil, soluble at 6% ([3]; 25° C., PEG200): ✓ | solubility of dicyclanil, soluble at 7% ([3]; 25° C., PEG200): ✓ | solubility of dicyclanil, soluble at 5% ([3]; 25° C., PEG400): less | solubility of dicyclanil, soluble at 5% ([3]; 25° C., PG): less | solubility in words ([3]; Isopropyl Alcohol, Benzyl Alcohol, Ethyl Lactate, Propylene Glycol, Diethylene Glycol monobutyl Ether): quite insoluble | solubility of dicyclanil in PEG200 ([3]; at 25° C., PEG200): 7% | solubility of dicyclanil in PEG400 ([3]; at 25° C., PEG400): less than 5% | solubility of dicyclanil, soluble at 5% ([4]; BA, 5%): less | solubility of dicyclanil, soluble at 5% ([4]; DGBE, 5%): less | solubility of dicyclanil, soluble at 5% ([4]; DGMEE, 5%): ✓ | solubility of dicyclanil, soluble at 5% ([4]; DMA, 5%): ✓ | solubility of dicyclanil, soluble at 10% ([4]; DMA): ✓ | solubility of dicyclanil, soluble at 15% ([4]; DMA): ✓ | solubility of dicyclanil, soluble at 20% ([4]; DMA): ✓ | solubility of dicyclanil, soluble at 25% ([4]; DMA): ✓ | solubility of dicyclanil, soluble at 5% ([4]; DMSO, 5%): ✓ | solubility of dicyclanil, soluble at 10% ([4]; DMSO): ✓ | solubility of dicyclanil, soluble at 15% ([4]; DMSO): ✓ | solubility of dicyclanil, soluble at 20% ([4]; DMSO): ✓ | solubility of dicyclanil, soluble at 25% ([4]; DMSO): ✓ | solubility of dicyclanil, soluble at 5% ([4]; EL, 5%): ✓ | solubility of dicyclanil, soluble at 5% ([4]; GF, 5%): ✓ | solubility of dicyclanil, soluble at 10% ([4]; GF): ✓ | solubility of dicyclanil, soluble at 5% ([4]; IPA, 5%): less | solubility of dicyclanil, soluble at 5% ([4]; PEG400, 5%): ✓ | solubility of dicyclanil, soluble at 5% ([4]; PG, 5%): less | solubility in PEG (in words) ([5]; PEG): good solubility | concentration at which dicyclanil remains stable without additional excipients ([5]; PEG-based formulations): at least 5% | activity relative to cyromazine [6]: 10 times

Dicyclanil Crystal Formation, 3 days [1, 7]: Large crystals up to 200μ | Dicyclanil Crystal Formation, Initial [1, 7]: Up to 100μ
SMILES: CCCCC(CC)COC(=O)CC(C(=O)OCC(CC)CCCC)S(=O)(=O)[O-].[Na+] (centres unmarked) [Docusate sodium]

Dicyclanil Crystal Formation, 3 days [1, 7]: Large crystals up to 200μ | Dicyclanil Crystal Formation, Initial [1, 7]: Mostly up to 200μ
SMILES: CCCCCCCCCCCCOS(=O)(=O)[O-].[Na+] [Sodium lauryl sulphate]

Reference: patent US20110152302A1, “Novel dicyclanil-based shelf stable aqueous suspension and non-aqueous solution pour-on and spray-on formulations useful for the prevention and treatment of insect infestation in animals” (priority 2009, published 2011)
